Measurements reported in patent publication US12649727B2, “EFGR inhibitor, preparation method therefor and application thereof” (Abbisko Therapeutics Co., Ltd, priority 2020, dated 2026).

Tests used:
Assay type in all cases: cell-based
[1] = biological target: Ba/F3 EGFR-V769_D770insASV (Homo sapiens, UniProt P00533, DUP767-769, cells depend on it); test: Proliferation experiment of Ba/F3 cell line, EGFR-V769_D770insASV (CellTiter-Glo); conditions: cultured for 72 hrs with compound, CTG analysis, read-out: Ba/F3 EGFR-V769_D770insASV IC50
Ba/F3 EGFR-V769_D770insASV, sequence (P00533 with tags, fused parts or gaps DUP767-769): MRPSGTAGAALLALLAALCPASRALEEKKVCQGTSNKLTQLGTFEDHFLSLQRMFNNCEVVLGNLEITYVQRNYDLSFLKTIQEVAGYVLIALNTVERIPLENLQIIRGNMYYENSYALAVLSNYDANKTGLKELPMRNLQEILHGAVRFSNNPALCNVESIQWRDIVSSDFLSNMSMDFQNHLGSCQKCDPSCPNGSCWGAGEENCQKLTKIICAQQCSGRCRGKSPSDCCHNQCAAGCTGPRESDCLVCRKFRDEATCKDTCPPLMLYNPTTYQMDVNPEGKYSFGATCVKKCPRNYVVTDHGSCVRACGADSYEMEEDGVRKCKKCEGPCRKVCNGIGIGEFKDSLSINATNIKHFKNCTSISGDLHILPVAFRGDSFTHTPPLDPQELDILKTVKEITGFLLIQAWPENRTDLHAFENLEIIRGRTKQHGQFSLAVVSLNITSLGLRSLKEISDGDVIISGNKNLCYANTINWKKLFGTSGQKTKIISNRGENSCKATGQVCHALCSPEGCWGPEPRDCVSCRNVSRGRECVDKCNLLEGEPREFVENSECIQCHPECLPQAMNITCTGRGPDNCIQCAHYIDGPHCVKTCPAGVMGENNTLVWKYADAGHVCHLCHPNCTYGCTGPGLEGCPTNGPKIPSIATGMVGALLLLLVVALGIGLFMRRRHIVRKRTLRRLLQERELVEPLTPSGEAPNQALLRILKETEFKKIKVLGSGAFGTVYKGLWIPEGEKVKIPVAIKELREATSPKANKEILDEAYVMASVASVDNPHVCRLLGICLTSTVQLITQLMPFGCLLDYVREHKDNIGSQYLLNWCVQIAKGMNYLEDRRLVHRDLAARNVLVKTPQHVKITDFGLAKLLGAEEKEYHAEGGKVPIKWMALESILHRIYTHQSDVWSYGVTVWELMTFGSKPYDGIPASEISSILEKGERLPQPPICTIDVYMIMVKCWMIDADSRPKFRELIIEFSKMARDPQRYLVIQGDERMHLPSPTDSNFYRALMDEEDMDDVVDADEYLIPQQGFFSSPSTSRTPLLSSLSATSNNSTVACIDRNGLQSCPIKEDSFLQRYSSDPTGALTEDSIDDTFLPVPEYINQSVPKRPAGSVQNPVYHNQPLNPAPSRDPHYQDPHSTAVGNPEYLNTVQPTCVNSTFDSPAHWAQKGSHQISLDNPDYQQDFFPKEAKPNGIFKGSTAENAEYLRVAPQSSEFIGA
Procedure: (§1) Proliferation Experiment of Ba/F3 Cell Line
(§2) (I) Reagents and Materials
(§3) • Fetal bovine serum FBS (GBICO, Cat #10099-141); • CellTiter-Glo® luminescent cell viability assay kit (Promega, Cat #G7572); • Black transparent flat-bottom 96 well plate (Corning®, Cat #3603). (II) Instruments • SpectraMax multi-label microplate reader MD, 2104-0010A; • Carbon dioxide incubator, Thermo Scientific 3100 series; • Biological safety cabinet, Thermo Scientific, 1300 series model A2; • Inverted microscope, Olympus, CKX41SF; • Siemens refrigerator KK25E76TI. (III) Cell Lines and Culture Conditions
(§4) (IV) Experimental Procedures 1. Cell Culture and Inoculation: • (1) Cells in the logarithmic growth phase were harvested and counted using a […]. Cell viability was detected by Trypan Blue Dye Exclusion Method to ensure cell viability above 90%. • (2) The cell concentration was adjusted to reach a desired final density; 90 μL of cell suspension was added to the 96-well plate. • (3) The cells were incubated overnight in the 96-well plate at 37° C., 5% CO2 and at 95% humidity.
(§5) 2. T0 Reference Data: • (1) 10 μL PBS was added to each well of the TO plate containing the cells. • (2) The CTG reagent was thawed and the cell plate was equilibrated to room temperature for 30 min. • (3) An equal volume of CTG solution was added to each well. • (4) The cells were lysed by shaking on an orbital shaker for 5 min. • (5) The cell plate was left at room temperature for 20 min to stabilize the luminescence signal. • (6) The fluorescence signal values of TO were read. 3. Dilution and Addition of Compounds • (1) According to the compound information table, a corresponding volume of DMSO was added to the corresponding compound powder to prepare a 10 mM stock solution. • (2) A 1000-fold, 3.16-fold-diluted compound solution was prepared. • (3) The 1000× diluted compound solution was diluted 100-fold with PBS to prepare a 10-fold compound solution with a maximum concentration of […], including 9 concentrations, with 3.16-fold dilution, and 10 μL of the medicament solution was added to each well of the 96-well plate to seed the cells. Triplicate wells were set for each compound concentration, with a final concentration of DMSO being 0.1%. • (4) The cells were placed in the 96-well plate filled with the medicament at 37° C., 5% CO2 and at 95% humidity, and cultured for 72 hrs before CTG analysis. 4. Fluorescence Signal Reading • (1) The CTG reagent was thawed and the cell plate was equilibrated to room temperature for 30 min. • (2) An equal volume of CTG solution was added to each well. • (3) The cells were lysed by shaking on an orbital shaker for 5 min. • (4) The cell plate was left at room temperature for 20 min to stabilize the fluorescence signal. • (5) The fluorescence values were read. 5. Data Processing
(§6) Data were analyzed using GraphPad Prism 7.0 software and fitted data were regressed using non-linear S-curves to obtain dose-response curves from which IC50 values (in nM) were calculated.

A431 (EGFR-WT) = test: Proliferation experiment, A431 cell line (CellTiter-Glo); conditions: Homo sapiens, A-431; A431 cells, cultured for 72 hrs with compound, CTG analysis
Procedure: [The procedure below names another cell line; the source lists this cell line under the same test.] as §1, §2, §3, §4, §5, §6

[2] = biological target: Ba/F3 EGFR-D770-N771ins_SVD (Homo sapiens, UniProt P00533, DUP768-770, cells depend on it); test: Proliferation experiment of Ba/F3 cell line, EGFR-D770-N771ins_SVD (CellTiter-Glo); conditions: cultured for 72 hrs with compound, CTG analysis, read-out: Ba/F3 EGFR-D770-N771ins_SVD IC50
Ba/F3 EGFR-D770-N771ins_SVD, sequence (P00533 with tags, fused parts or gaps DUP768-770): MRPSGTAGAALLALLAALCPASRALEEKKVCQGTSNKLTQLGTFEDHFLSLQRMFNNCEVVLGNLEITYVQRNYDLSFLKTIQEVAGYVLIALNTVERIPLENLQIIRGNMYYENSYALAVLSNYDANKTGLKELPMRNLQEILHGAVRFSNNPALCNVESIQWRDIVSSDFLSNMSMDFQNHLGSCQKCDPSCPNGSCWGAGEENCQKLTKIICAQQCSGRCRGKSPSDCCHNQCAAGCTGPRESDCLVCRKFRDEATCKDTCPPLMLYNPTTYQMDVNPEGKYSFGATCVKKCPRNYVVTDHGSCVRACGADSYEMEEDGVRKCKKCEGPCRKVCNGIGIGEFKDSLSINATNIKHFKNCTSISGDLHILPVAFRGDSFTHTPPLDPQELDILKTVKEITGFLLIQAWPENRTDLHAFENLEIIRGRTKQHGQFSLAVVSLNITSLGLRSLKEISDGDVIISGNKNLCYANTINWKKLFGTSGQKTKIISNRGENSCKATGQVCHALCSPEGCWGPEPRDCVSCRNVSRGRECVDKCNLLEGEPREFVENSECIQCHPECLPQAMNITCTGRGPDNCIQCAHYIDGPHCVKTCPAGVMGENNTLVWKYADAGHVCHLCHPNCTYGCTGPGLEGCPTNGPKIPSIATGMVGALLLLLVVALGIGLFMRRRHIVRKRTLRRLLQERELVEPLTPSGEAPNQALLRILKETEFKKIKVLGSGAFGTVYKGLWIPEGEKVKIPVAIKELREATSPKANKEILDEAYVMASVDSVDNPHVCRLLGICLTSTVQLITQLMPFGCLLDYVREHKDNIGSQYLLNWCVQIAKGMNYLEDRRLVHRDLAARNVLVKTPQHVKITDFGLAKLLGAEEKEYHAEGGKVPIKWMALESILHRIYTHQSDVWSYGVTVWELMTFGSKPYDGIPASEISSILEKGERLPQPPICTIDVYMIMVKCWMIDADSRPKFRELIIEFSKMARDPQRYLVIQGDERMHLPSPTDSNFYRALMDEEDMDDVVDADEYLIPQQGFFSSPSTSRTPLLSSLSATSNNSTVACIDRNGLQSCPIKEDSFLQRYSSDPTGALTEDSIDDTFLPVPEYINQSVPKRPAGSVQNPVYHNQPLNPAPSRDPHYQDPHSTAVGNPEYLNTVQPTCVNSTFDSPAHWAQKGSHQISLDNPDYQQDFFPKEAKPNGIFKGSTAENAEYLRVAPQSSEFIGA
Procedure: as §1, §2, §3, §4, §5, §6

Structure (SMILES) | GI50 [1] [nM] | IC50 (A431 (EGFR-WT)) [nM] | GI50 [2] [nM]
C=CC(=O)Nc1cc2c(Nc3cccc(-c4ccc(F)cc4F)c3)ncnc2cc1OCCCN1CCN(C)CC1 [Example 7, N-(4-((2′,4′-difluoro-[1,1′-biphenyl]-3-yl)amino)-7-(3-(4-methylpiperazin-1-yl)propoxy)quinazolin-6-yl)acrylamide] | 28.4 | 238 | 25.2
C=CC(=O)Nc1cc2c(Nc3cccc(-c4ccc(F)cc4)c3)ncnc2cc1OCCCN1CCOCC1 [Example 6, N-(4-((4′-fluoro-[1,1′-biphenyl]-3-yl)amino)-7-(3-morpholinopropoxy)quinazolin-6-yl)acrylamide] | 89 | 61.4 | 37.5
C=CC(=O)Nc1cc2c(Nc3ccc(F)c(-c4c(F)cccc4F)c3)ncnc2cc1OCCCN1CCN(C)CC1 [Example 40, N-(7-(3-(4-methylpiperazin-1-yl)propoxy)-4-((2′,6,6′-trifluoro-[1,1′-biphenyl]-3-yl)amino)quinazolin-6-yl)acrylamide] | 25.4 | 372 | 15
C=CC(=O)Nc1cc2c(Nc3cccc(-n4nccn4)c3)ncnc2cc1OCCCN1CCN(C)CC1 [Example 56, N-(4-((3-(2H-1,2,3-triazol-2-yl)phenyl)amino)-7-(3-(4-methylpiperazin-1-yl)propoxy)quinazolin-6-yl)acrylamide] | 22.6 | 357 | 11.4
C=CC(=O)Nc1cc2c(Nc3cccc(-n4cccn4)c3)ncnc2cc1OCCN1CCOCC1 [Example 51, N-(4-((3-(1H-pyrazol-1-yl)phenyl)amino)-7-(2-morpholinoethoxy)quinazolin-6-yl)acrylamide] | 89.9 |  | 40.6
C=CC(=O)Nc1cc2c(Nc3cccc(-n4nccn4)c3)ncnc2cc1OCCN1CCOCC1 [Example 54, N-(4-((3-(2H-1,2,3-triazol-2-yl)phenyl)amino)-7-(2-morpholinoethoxy)quinazolin-6-yl)acrylamide] | 107 |  | 67.9
C=CC(=O)Nc1cc2c(Nc3cccc(-c4ccc(F)cc4F)c3)ncnc2cc1OCCN1CCN(C)CC1 [Example 4, N-(4-((2′,4′-difluoro-[1,1′-biphenyl]-3-yl)amino)-7-(2-(4-methylpiperazin-1-yl)ethoxy)quinazolin-6-yl)acrylamide] | 175 |  | 52.5
C=CC(=O)Nc1cc2c(Nc3cccc(-n4nccn4)c3)ncnc2cc1OCCCN1CCOCC1 [Example 55, N-(4-((3-(2H-1,2,3-triazol-2-yl)phenyl)amino)-7-(3-morpholinopropoxy)quinazolin-6-yl)acrylamide] | 34.6 |  | 15
C=CC(=O)Nc1cc2c(Nc3cccc(-n4cccn4)c3)ncnc2cc1OCCCN1CCOCC1 [Example 52, N-(4-((3-(1H-pyrazol-1-yl)phenyl)amino)-7-(3-morpholinopropoxy)quinazolin-6-yl)acrylamide] | 17.9 |  | 10.4

The next lines start with the values.

GI50 [1] [nM] | IC50 (A431 (EGFR-WT)) [nM] | GI50 [2] [nM] | Structure (SMILES)
6.4 | 73.2 | 2.9 | C=CC(=O)Nc1cc2c(Nc3ccnc(-c4c(F)cccc4F)c3)ncnc2cc1O[C@@H]1CCN(C)C1 [Example 76, (R)-N-(4-((2-(2,6-difluorophenyl)pyridin-4-yl)amino)-7-((1-methylpyrrolidin-3-yl)oxy)quinazolin-6-yl)acrylamide]
25.5 | 687 | 10.1 | C=C(F)C(=O)Nc1cc2c(Nc3ccnc(-c4ccccc4F)c3)ncnc2cc1OCC(F)(F)F [Example 88, 2-fluoro-N-(4-((2-(2-fluorophenyl)pyridin-4-yl)amino)-7-(2,2,2-trifluoroethoxy)quinazolin-6-yl)acrylamide]
2.6 | 624 | 1.7 | C=CC(=O)Nc1cc2c(Nc3ccnc(-c4ccccc4F)c3)ncnc2cc1OC [Example 82, N-(4-((2-(2-fluorophenyl)pyridin-4-yl)amino)-7-methoxyquinazolin-6-yl)acrylamide]
9.8 | 19.1 | 2.6 | C=C(F)C(=O)Nc1cc2c(Nc3ccnc(-c4ccccc4F)c3)ncnc2cc1O[C@@H]1CCN(C2COC2)C1 [Example 118, (R)-2-fluoro-N-(4-((2-(2-fluorophenyl)pyridin-4-yl)amino)-7-((1-(oxetan-3-yl)pyrrolidin-3-yl)oxy)quinazolin-6-yl)acrylamide]
5.2 | 122 | 3.1 | C=CC(=O)Nc1cc2c(Nc3ccnc(-c4ccc(F)cc4F)c3)ncnc2cc1O[C@@H]1CCN(C)C1 [Example 81, (R)-N-(4-((2-(2,4-difluorophenyl)pyridin-4-yl)amino)-7-((1-methylpyrrolidin-3-yl)oxy)quinazolin-6-yl)acrylamide]
3.1 | 9.3 | 1.9 | C=CC(=O)Nc1cc2c(Nc3ccnc(-c4ccccc4F)c3)ncnc2cc1OCCCN1CCN(CC)CC1 [Example 71, N-(7-(3-(4-ethylpiperazin-1-yl)propoxy)-4-((2-(2-fluorophenyl)pyridin-4-yl)amino)quinazolin-6-yl)acrylamide]
28.7 | 1070 | 10.8 | C=CC(=O)Nc1cc2c(Nc3cncc(-c4ccccc4F)c3)ncnc2cc1OCCN1CCOCC1 [Example 57, N-(4-((5-(2-fluorophenyl)pyridin-3-yl)amino)-7-(2-morpholinoethoxy)quinazolin-6-yl)acrylamide]
3.8 | 41 | 3.2 | C=CC(=O)Nc1cc2c(Nc3ccnc(-c4ccc(F)cc4F)c3)ncnc2cc1OCCCN1CCOCC1 [Example 78, N-(4-((2-(2,4-difluorophenyl)pyridin-4-yl)amino)-7-(3-morpholinopropoxy)quinazolin-6-yl)acrylamide]
38.1 | 972 | 14.1 | C=CC(=O)Nc1cc2c(Nc3cncc(-c4ccccc4F)c3)ncnc2cc1O[C@@H]1CCN(C)C1 [Example 63, (R)-N-(4-((5-(2-fluorophenyl)pyridin-3-yl)amino)-7-((1-methylpyrrolidin-3-yl)oxy)quinazolin-6-yl)acrylamide]
16.5 | 44.1 | 6.5 | C=C(F)C(=O)Nc1cc2c(Nc3ccnc(-c4ccccc4F)c3)ncnc2cc1O[C@@H]1CCN(C2CCOCC2)C1 [Example 121, (R)-2-fluoro-N-(4-((2-(2-fluorophenyl)pyridin-4-yl)amino)-7-((1-(tetrahydro-2H-pyran-4-yl)pyrrolidin-3-yl)oxy)quinazolin-6-yl)acrylamide]
32.7 | 655 | 12.7 | C=C(F)C(=O)Nc1cc2c(Nc3ccnc(-c4ccccc4F)c3)ncnc2cc1OCC1CC1 [Example 91, N-(7-(cyclopropylmethoxy)-4-((2-(2-fluorophenyl)pyridin-4-yl)amino)quinazolin-6-yl)-2-fluoroacrylamide]
6.1 | 315 | 2.8 | C=CC(=O)Nc1cc2c(Nc3ccnc(-c4ccccc4F)c3)ncnc2cc1N1CCC(N2CCN(C)CC2)CC1 [Example 99, N-(4-((2-(2-fluorophenyl)pyridin-4-yl)amino)-7-(4-(4-methylpiperazin-1-yl)piperidin-1-yl)quinazolin-6-yl)acrylamide]
13.6 | 840 | 5.1 | C=CC(=O)Nc1cc2c(Nc3cncc(-c4ccccc4F)c3)ncnc2cc1OCCCN1CCOCC1 [Example 58, N-(4-((5-(2-fluorophenyl)pyridin-3-yl)amino)-7-(3-morpholinopropoxy)quinazolin-6-yl)acrylamide]
